This passage reports IC50 and melting point results from patent publication US20120045500A1, “NOVEL DIOXO-IMIDAZOLIDINE DERIVATIVES, WHICH INHIBIT THE ENZYME SOAT-1, AND PHARMACEUTICAL AND COSMETIC COMPOSITIONS CONTAINING THEM” (GALDERMA RESEARCH & DEVELOPMENT, priority 2009, published 2012).

SMILES strings stand for the structures.

Broadly, the IC50 is the concentration that inhibits the measured activity by half. Broadly, the melting point is the temperature of the solid-liquid transition.

For the first series, the target named is T1, enzyme ACAT-1 (Homo sapiens, UniProt P35610).
T1 construct: endogenous in cells; host or cells: HepG2
T1 sequence (P35610 1-550): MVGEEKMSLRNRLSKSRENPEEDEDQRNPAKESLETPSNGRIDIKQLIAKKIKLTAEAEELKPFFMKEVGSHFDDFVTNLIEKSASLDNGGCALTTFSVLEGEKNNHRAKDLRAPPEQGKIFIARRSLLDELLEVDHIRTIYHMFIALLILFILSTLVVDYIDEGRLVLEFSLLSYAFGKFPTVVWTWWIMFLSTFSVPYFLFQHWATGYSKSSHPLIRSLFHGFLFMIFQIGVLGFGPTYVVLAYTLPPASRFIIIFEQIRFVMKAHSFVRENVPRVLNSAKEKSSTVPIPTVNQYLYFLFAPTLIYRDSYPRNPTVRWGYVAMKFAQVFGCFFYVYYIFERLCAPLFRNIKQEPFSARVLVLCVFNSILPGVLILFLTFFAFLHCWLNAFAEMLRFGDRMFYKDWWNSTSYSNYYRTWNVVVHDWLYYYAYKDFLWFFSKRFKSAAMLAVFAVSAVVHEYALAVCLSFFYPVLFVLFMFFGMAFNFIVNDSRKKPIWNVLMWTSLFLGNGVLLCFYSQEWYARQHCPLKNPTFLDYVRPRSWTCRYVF
The series can be described thus: HepG2 NBD-cholesterol fluorescence test for inhibitory activity towards the enzyme ACAT-1 (SOAT-1). It is filed as cell-based.
Details: not given
The method, then: The compounds (I) according to the invention, and also the pharmaceutically acceptable salts, solvates and/or hydrates thereof, have inhibitory properties on the enzyme SOAT-1. This inhibitory activity on the enzyme SOAT-1 is measured according to a HepG2 primary enzymatic test, as described in Example 15.
The compounds of formula (I) according to the invention were subjected to a test for evaluating their inhibitory activity towards the enzyme ACAT-1, inspired by the following publication: “Identification of ACAT1- and ACAT2-specific inhibitors using a novel, cell based fluorescence assay: individual ACAT uniqueness”, J. Lipid. Res. (2004) vol. 45, pages 378-386.
The principle of this test is based on the use of NBD-cholesterol, a cholesterol analogue whose fluorescence depends on its environment. When this molecule is in a polar environment, it is weakly fluorescent, whereas in a non-polar environment, it is strongly fluorescent. Free NBD-cholesterol becomes inserted in cell membranes and is weakly fluorescent in this polar environment. When NBD-cholesterol is esterified with ACAT, the NBD-cholesterol ester enters non-polar lipid droplets and is then strongly fluorescent.
The method below is applied: HepG2 cells are incubated in the presence of NBD-cholesterol (1 μg/ml) and of the test compound of formula (I) in black transparent-bottomed 96-well plates, at a rate of 30 000 cells per well. After incubation for 6 hours at 37° C. under 5% CO2, the medium is removed by turning upside-down and the cells are washed with twice 100 μl of PBS. After addition of 50 μl of lysis buffer (10 mM NaPO4, 1% Igepal), the plates are shaken for 5 minutes and the fluorescence is read (excitation at 490 nm, emission at 540 nm) on a Fusion machine (Perkin-Elmer).
Regarding `CC(=O)N1CCC2(CC1)C(=O)N(CC(=O)Nc1c(C(C)C)cccc1C(C)C)C(=O)N2c1ccc(C)cc1` [Compound 1, 2-(8-acetyl-2,4-dioxo-1-p-tolyl-1,3,8-triazaspiro[4.5]dec-3-yl)-N-(2,6-diisopropylphenyl)acetamide], half-maximal inhibition (IC50) required 1600 nM. Still for that read-out and setting: next, `Cc1ccc(N2C(=O)N(CC(=O)Nc3c(C(C)C)cccc3C(C)C)C(=O)C23CCN(C(=O)OC(C)(C)C)CC3)cc1` [Compound 2, 3-[(2,6-diisopropylphenylcarbamoyl)methyl]-2,4-dioxo-1-p-tolyl-1,3,8-triazaspiro[4.5]decane-8-carboxylic acid tert-butyl ester]: 29 nM; `Cc1ccc(N2C(=O)N(CC(=O)Nc3c(C(C)C)cccc3C(C)C)C(=O)C23CCN(C(=O)c2ccccc2)CC3)cc1` [Compound 3, 2-(8-benzoyl-2,4-dioxo-1-p-tolyl-1,3,8-triazaspiro[4.5]dec-3-yl)-N-(2,6-diisopropylphenyl)acetamide]: 86 nM. The same measure, in the same setting: next, `Cc1ccc(N2C(=O)N(CC(=O)Nc3c(C(C)C)cccc3C(C)C)C(=O)C23CCN(Cc2ccccc2)CC3)cc1` [Compound 4, 2-(8-benzyl-2,4-dioxo-1-p-tolyl-1,3,8-triazaspiro[4.5]dec-3-yl)-N-(2,6-diisopropylphenyl)acetamide]: 5.8 nM; `Cc1ccc(N2C(=O)N(CC(=O)Nc3c(C(C)C)cccc3C(C)C)C(=O)C23CCN(C)CC3)cc1` [Compound 5, N-(2,6-diisopropylphenyl)-2-(8-methyl-2,4-dioxo-1-p-tolyl-1,3,8-triazaspiro[4.5]dec-3-yl)acetamide]: 20 nM.

The same series, now with this note: HepG2 cells, NBD-cholesterol 1 μg/ml, incubation 6 hours at 37° C., fluorescence read (490/540 nm); read-out: IC50.
Consider `Cc1ccc(N2C(=O)N(CC(=O)Nc3c(C(C)C)cccc3C(C)C)C(=O)C23CCC(O)CC3)cc1` (stereo not drawn) [Compound 6, N-(2,6-Diisopropylphenyl)-2-(8-hydroxy-2,4-dioxo-1-p-tolyl-1,3-diazaspiro[4.5]dec-3-yl)acetamide], for which the IC50 stood at 6.4 nM. On the same count and under the same terms, then `Cc1ccc(N2C(=O)N(CC(=O)Nc3c(C(C)C)cccc3C(C)C)C(=O)C23CCSCC3)cc1` [Compound 7, N-(2,6-diisopropylphenyl)-2-(2,4-dioxo-1-p-tolyl-8-thia-1,3-diazaspiro[4.5]dec-3-yl)acetamide], with 1.8 nM. The same measure, in the same setting: then `Cc1ccc(N2C(=O)N(CC(=O)Nc3c(C(C)C)cccc3C(C)C)C(=O)C23CCC(F)(F)CC3)cc1` [Compound 8, 2-(8,8-difluoro-2,4-dioxo-1-p-tolyl-1,3-diazaspiro[4.5]dec-3-yl)-N-(2,6-diisopropylphenyl)acetamide], with 1.5 nM.

Take `Cc1ccc(N2C(=O)N(CC(=O)Nc3c(C(C)C)cccc3C(C)C)C(=O)C23CCOCC3)cc1` [Compound 9, N-(2,6-diisopropylphenyl)-2-(2,4-dioxo-1-p-tolyl-8-oxa-1,3-diazaspiro[4.5]dec-3-yl)acetamide]: the IC50 was 0.4 nM. Same read-out and setting: next, `CCc1cccc(CC)c1NC(=O)CN1C(=O)N(c2ccc(C)cc2)C2(CCOCC2)C1=O` [Compound 11, N-(2,6-diethylphenyl)-2-(2,4-dioxo-1-p-tolyl-8-oxa-1,3-diazaspiro[4.5]dec-3-yl)acetamide]: 9.4 nM.

System in a further series: not given
Assay: not given
Details: not given
`CC(=O)N1CCC2(CC1)C(=O)N(CC(=O)Nc1c(C(C)C)cccc1C(C)C)C(=O)N2c1ccc(C)cc1` [Compound 1, 2-(8-acetyl-2,4-dioxo-1-p-tolyl-1,3,8-triazaspiro[4.5]dec-3-yl)-N-(2,6-diisopropylphenyl)acetamide] returned a melting point of 136 to 138 °C. On the same count and under the same terms, then `Cc1ccc(N2C(=O)N(CC(=O)Nc3c(C(C)C)cccc3C(C)C)C(=O)C23CCC(O)CC3)cc1` (stereo not drawn) [Compound 6, N-(2,6-Diisopropylphenyl)-2-(8-hydroxy-2,4-dioxo-1-p-tolyl-1,3-diazaspiro[4.5]dec-3-yl)acetamide], with 142 to 144 °C.
